Read-outs that look alike come from different tables or passages of the source.
How the values were obtained:
cerebellar granule cells [1] = test: Current clamp of action potential firing in cultured cerebellar granule cells with membrane-delimited UV spot; format: cell-based, Sprague Dawley rats; conditions: 1 μM azogabazine; for inhibition at 1 µM: Rattus norvegicus
Protocol: Dissociated cerebellar cultures were prepared from cerebellar tissue taken from postnatal day 4 (P4) Sprague Dawley rats. Tissue blocks were incubated in trypsin for 10 min (0.1% w/v), washed in Hanks Balanced Salt Solution (HBSS), and then triturated in DNase (0.05% w/v in 12 mM MgSO4). Cells were plated on poly-L-ornithine coated 22 mm glass coverslips in Basal Medium Eagle (BME) supplemented with 0.5% (w/v) glucose, 5 mg/l insulin, 5 mg/l transferrin, 5 mg/l selenium, 20 u/ml penicillin-G and 20 μg/ml streptomycin, 0.2 mM glutamine, 1.2 mM NaCl, and 5% (v/v) fetal calf serum. The neuronal culture was then allowed to develop for 7–10 days at 37 °C in humidified air with 5% CO2 before used for experiments.
To initiate photo-isomerization of azogabazine, optical light paths were used to convey UV laser (Obis [375 nm], Coherent Inc., Santa Clara, USA) or blue LED light (OptoLED [470 nm], Cairn Research Ltd, Faversham, U.K.) through a variable diaphragm (for setting the illuminated spot-diameter), and finally through a water-immersion objective (Nikon, NIR Apo 40×/0.8w) to the cells. The diaphragm was kept fully open for whole cell light exposure experiments and reduced to generate small spots (~8–12 μm) when exposing soma or proximal dendritic areas. The illuminated spot size and position could be adjusted during experiments. Whereas the blue LED could be operated at high power (8.1 mW) during experiments, the UV laser output was empirically adjusted to 2 mW (4% of maximum operating power) to avoid cell damage, but still sufficient to adequately azogabazine isomerization. To adjust the size and position of the illuminated spot, a 440 nm white LED pilot light and a 515 nm long-pass filter were used before switching to UV or blue light.
IPSCs from cerebellar granule cells were detected post-hoc using WinEDR 3.5.6, and analysed for frequency, amplitude, rise time and weighted decay tau using WinWCP 4.9.6. Action potentials from cerebellar granule cells were recorded under current-clamp and were similarly detected with WinEDR 3.5.6. Data were subjected to statistical analyses (ANOVA, paired and unpaired Student t-tests).
To assess neuronal excitability and GABA inhibition, current clamp recordings were performed from cultured granule cells to monitor action potential generation in the presence of 1 μM azogabazine before and after applying UV light.

α1β2γ2L GABAARs [2] = molecular target: T1, α1β2γ2L GABAARs (Mus musculus, UniProt P62812+P63137); parameters: method as in Huckvale et al., 2016; conditions: normal ambient daylight; ref Huckvale et al., 2016; cited from earlier work
T1 construct: expressed in transfected cells; host or cells: HEK293
T1 sequence (P62812 28-455): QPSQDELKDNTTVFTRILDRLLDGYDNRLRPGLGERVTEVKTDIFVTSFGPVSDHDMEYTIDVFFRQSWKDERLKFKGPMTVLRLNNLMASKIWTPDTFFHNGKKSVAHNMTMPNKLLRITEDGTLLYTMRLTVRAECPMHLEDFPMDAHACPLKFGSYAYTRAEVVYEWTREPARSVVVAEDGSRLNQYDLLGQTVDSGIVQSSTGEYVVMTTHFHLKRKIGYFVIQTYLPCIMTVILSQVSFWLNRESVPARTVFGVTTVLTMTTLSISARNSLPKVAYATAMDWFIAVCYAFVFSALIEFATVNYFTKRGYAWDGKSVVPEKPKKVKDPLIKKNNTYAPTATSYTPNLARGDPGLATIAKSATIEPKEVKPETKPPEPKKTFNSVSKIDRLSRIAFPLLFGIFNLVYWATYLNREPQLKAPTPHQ
T1 sequence (P63137 25-512 limits assumed): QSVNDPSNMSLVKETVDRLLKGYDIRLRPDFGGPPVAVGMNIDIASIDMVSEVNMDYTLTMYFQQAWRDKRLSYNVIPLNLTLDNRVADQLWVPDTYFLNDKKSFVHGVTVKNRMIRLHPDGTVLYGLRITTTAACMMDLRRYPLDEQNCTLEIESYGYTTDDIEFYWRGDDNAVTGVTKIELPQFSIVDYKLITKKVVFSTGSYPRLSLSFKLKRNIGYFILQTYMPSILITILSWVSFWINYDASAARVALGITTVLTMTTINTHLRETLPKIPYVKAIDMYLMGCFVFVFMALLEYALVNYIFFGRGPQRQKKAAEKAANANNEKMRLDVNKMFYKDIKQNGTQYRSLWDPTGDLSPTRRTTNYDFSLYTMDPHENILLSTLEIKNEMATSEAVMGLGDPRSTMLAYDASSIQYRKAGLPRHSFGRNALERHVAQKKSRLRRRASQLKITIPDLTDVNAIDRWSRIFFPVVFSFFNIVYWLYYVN
T1 sequence (P22723 39-474 partner): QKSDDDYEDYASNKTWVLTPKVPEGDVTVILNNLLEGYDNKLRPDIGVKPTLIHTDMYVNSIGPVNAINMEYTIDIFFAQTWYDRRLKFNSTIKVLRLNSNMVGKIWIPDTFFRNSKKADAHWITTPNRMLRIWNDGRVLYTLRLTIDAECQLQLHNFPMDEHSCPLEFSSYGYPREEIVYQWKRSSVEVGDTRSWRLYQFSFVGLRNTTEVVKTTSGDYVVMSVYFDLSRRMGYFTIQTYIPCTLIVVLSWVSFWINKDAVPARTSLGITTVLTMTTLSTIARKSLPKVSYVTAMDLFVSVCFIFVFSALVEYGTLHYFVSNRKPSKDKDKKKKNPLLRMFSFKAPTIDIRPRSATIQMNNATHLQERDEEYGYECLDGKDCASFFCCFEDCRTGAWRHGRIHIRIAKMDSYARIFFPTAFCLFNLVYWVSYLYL

α1β2γ2L GABAARs [3] = molecular target: T1, α1β2γ2L GABAARs; test: Whole-cell patch clamp of GABA currents, recombinant α1β2γ2L GABAARs in HEK293 cells; format: cell-based, murine; conditions: for IC50: 10 μM GABA
cerebellar granule cells [4] = test: Voltage clamp of GABA-mediated IPSCs in cultured cerebellar granule cells with membrane-delimited UV spot; format: cell-based, Sprague Dawley rats; conditions: for mean IPSC amplitude recovered with UV light / IPSC frequency normalised to 100 μm^2 membrane area: 1 μM azogabazine; for mean IPSC amplitude recovered with UV light: −60 mV, n = 12
[5] = 1H NMR of cis:trans isomer ratio and isomer stability under different light conditions; format: physicochemical
Protocol: For most of the study azogabazine was kept in darkness to ensure a stock of near-100% trans-isomer. Unless stated otherwise, experiments were performed in near-darkness (under red light) when making azogabazine stocks (1 mM stock solution in DMSO), and when pre-exposing stock solutions to UV or blue light using wavelength specific LEDs. Pre-exposure of azogabazine (stock) to UV or blue light was undertaken by positioning a UV (365 nm) or blue (470 nm) OptoLED (Cairn Research Ltd, Faversham, UK) 2–3 mm above a 500 μl droplet on parafilm and exposing for 2 min at maximum light intensity to ensure attainment of equilibrium between cis and trans isomers. The UV LED was operated at 1.2 A to achieve a light intensity output at the surface of the droplet of 5.3 mW. By comparison, the Blue LED was run at 0.9 A for a light intensity output of 8.1 mW at the surface of the droplet.
To physically assess the photo-conversion efficiency between the cis and trans isomers we determined the proton (^1H)-NMR spectra for azogabazine ([…]) in deuterated DMSO under different light conditions. Initially, azogabazine was retained in complete darkness for >14 days and then stored under similar dark conditions. This drove the cis:trans equilibrium almost completely towards the more thermodynamically stable trans isomer (Fig. 1C). […] By integrating the ^1H NMR spectra, long-term darkness produced ~100% of trans-azogabazine, whereas the UV (365 nm) exposure produced an equilibrium of ~85% cis to 15% trans isomers. […] Thus, switching the wavelength of light produced substantive photoisomerisation of azogabazine.
Fig. 2 Azogabazine isomerization and isomer stability. (A), Stability plot for the cis-isomer for non-dark adapted azogabazine samples exposed to different wavelengths of light: λ 365, 405, 470, 530, 565 nm, and near-infrared (NR), prior to ^1H NMR. […] A long (60 s) period of UV-exposure was needed to reach a maximal equilibrium conversion ratio of ~85 : 15% for cis: trans isomers. […] (B), The stability of a UV exposed and established cis: trans ratio is dependent on subsequent storage conditions. If the UV-exposed sample is subsequently kept in ambient light (blue line), the cis:trans ratio changes over ~ 2–4 h towards ~25% cis: 75% trans remaining stable over 10 days (dashed blue line). By contrast, the UV-exposed sample remained stable (~85% cis: 15% trans) over 24 h if subsequently kept in darkness (red line). However, over 10 days, conversion to a predominant trans-form was evident (dashed red line). Finally, when a sample which had been kept in ambient light (~25% cis: 75% trans) was then placed and stored in darkness, it remained stable over 24 h (green line) but slowly converted again to the trans form over 10 days (dashed green line).
To investigate the dynamic relationship between the two azogabazine isomers, we investigated the effect of azogabazine in solution under conditions that result in three different ratios of trans: cis isomers. These included: a dark-adapted solution (trans 100: cis 0%); one pre-exposed for 60 s to blue light (trans 75: cis 25%); and a third exposed for the same duration to UV light (trans 15: cis 85%). […] All subsequent experiments were performed in near-darkness and within 3 h after the trans: cis ratios were established to ensure the stability of the isomers during experimentation. […] The later provides assurance as to the relative time stability of the cis and trans isoforms of azogabazine.

[6] = UV 365 nm exposure for 60 s, equilibrium
[7] = blue light 470 nm for 60 s, photostationary state

For `N=c1ccc(-c2ccc(N=Nc3ccccc3)cc2)nn1CCCC(=O)O` [azogabazine], the spike frequency (cerebellar granule cells [1]; before UV) was 8.4 ± 3.3 Hz, the burst frequency (cerebellar granule cells [1]; burst firing cells) was 1.1 ± 0.3 Hz and the “individual spikes per burst” value (cerebellar granule cells [1]; burst firing cells) was 11 ± 3. The inhibition at 1 µM (cerebellar granule cells [1]; UV on proximal dendritic zones, normalised to exposed area, read-out: inhibition of individual spike generation after UV isomerization) was 50 ± 17%, the inhibition at 1 µM (cerebellar granule cells [1]; UV on proximal dendritic zones, read-out: inhibition of spike burst generation after UV isomerization) was 60 ± 9% and the inhibition at 1 µM (cerebellar granule cells [1]; UV on somatic membrane, normalised to exposed area, read-out: inhibition of individual spike generation after UV isomerization) was 18 ± 3%. The inhibition at 1 µM (cerebellar granule cells [1]; UV on somatic membrane, read-out: inhibition of spike burst generation after UV isomerization) was 25 ± 3%, the IC50 (α1β2γ2L GABAARs [2]) was 22.6 nM and the pIC50 (α1β2γ2L GABAARs [2]) was 7.65 ± 0.14. The “block of GABA current” value (α1β2γ2L GABAARs [3]; 1 μM azogabazine co-applied with 10 μM GABA, ambient daylight) was “near complete block”, the remaining activity at 1 µM (α1β2γ2L GABAARs [3]; HEK293, read-out: GABA current recovery during UV light exposure, % of control GABA current, 1 μM azogabazine (not dark-adapted) + 10 μM GABA, UV light, n = 8) was 64 ± 9% and the remaining activity at 1 µM (α1β2γ2L GABAARs [3]; HEK293, 1 μM azogabazine (not dark-adapted) + 10 μM GABA, blue light, n = 8, read-out: GABA current during blue light exposure, % of control) was 6 ± 3%. The IC50 (α1β2γ2L GABAARs [3]; UV pre-exposed azogabazine (365 PE, ~15% trans)) was 104 nM, the IC50 (α1β2γ2L GABAARs [3]; dark-adapted azogabazine (~100% trans), wild-type) was 21.1 nM and the “inhibitory potency of dark-adapted versus UV pre-exposed azogabazine” value (α1β2γ2L GABAARs [3]; dark-adapted higher than UV pre-exposed) was 5 fold. For the same compound, the “block of GABA-mediated IPSCs” value (cerebellar granule cells [4]; 1 μM azogabazine (saturating), dark-adapted) was “rapidly blocked all the GABA-mediated IPSCs”, the “mean IPSC amplitude recovered with UV light” value (cerebellar granule cells [4]; UV spot directed to soma) was −74 ± 16 pA and the “IPSC frequency normalised to 100 μm^2 membrane area” value (cerebellar granule cells [4]; UV spot on proximal dendrites) was 4.2 ± 0.9 Hz. For the same compound, the “mean IPSC amplitude recovered with UV light” value (cerebellar granule cells [4]; UV spot on proximal dendritic zones) was −41 ± 7 pA, the “IPSC frequency normalised to 100 μm^2 membrane area” value (cerebellar granule cells [4]; UV spot on soma) was 1.8 ± 0.3 Hz and the cis isomer fraction [5, 6] was ~ 85%. The trans isomer fraction [5, 6] was 15%, the “time for UV-established cis:trans ratio to change towards ~25% cis: 75% trans” value ([5]; UV-exposed sample kept in ambient light) was 2 to 4 h and the cis isomer fraction [5, 7] was 25%. The trans isomer fraction [5, 7] was “approximately 75%” and the trans isomer fraction ([5]; long-term darkness, deuterated DMSO) was ~ 100%.
